These results are taken from paper PMC8624133, “10th Trends in Medical Mycology Held on 8 to 11 October 2021, Aberdeen, Scotland, Organized by the European Confederation of Medical Mycology (ECMM)” (Journal of Fungi, 2021).

The subject of data set [1] is C. auris. The data set is described as follows: Postantifungal effect (PAFE). In kind it is cell-based, Candida auris. Particulars: 2 and 4 mg/L, 1 h exposure, six blood isolates. The protocol: Materials & Methods: PAFE experiments were performed in microtitre plates, with six C. auris clinical blood isolates (Hospital La Fe, Valencia, Spain). […] Cell pellets were re-suspended in RPMI medium and added back to the microtitre plates. Sample for viable counts were taken at 0, 2, 4, 6, 8, 24 and 48 h after re-suspension, plated in triplicate onto Sabouraud dextrose agar and incubated for 24–48 h at 37 °C. Experiments were performed in duplicate for each isolate on different days. PAFE was calculated as follows: PAFE = T − C. Where “T” is the time needed by the treated fungal cultures to growth 1 log after drug removal and “C” is the time needed by the control group to growth 1 log after last washout. Additionally, maximum log reductions of time-kill and PAFE experiments were compared and used to calculate a PAFE/time-kill index to determine the percentage of cell killing that could be attributed to the PAFE.

Data set [2] relates to A. terreus sensu stricto isolates. The data set is described as follows: AMB MIC (EUCAST) of isolates used for time-kill. In kind it is cell-based. Particulars: Aspergillus terreus. The protocol: Materials & Methods: Tolerance is the ability of a “susceptible isolate” to grow in the presence of AMB above the MIC; tolerant fungi are characterized by a longer minimum duration of killing time (MDK) than susceptible isolates. We investigated AMB-MDKs of A. terreus sensu stricto isolates (n = 4) representing susceptible (S < […]) and resistant (R > […]) phenotypes (EUCAST). Time-kill curve analysis (99% killing of the initial population) was performed in RPMI 1640 and AM3 media at different AMB concentrations, and in parallel, the germination rate was determined microscopically.

The test system of data set [3] is C. auris isolates. The data set is described as follows: AmB Etest. It counts as cell-based, Candida auris. Particulars: for MIC: Candidozyma auris. The protocol: Methods: A total of 313 C. auris isolates representing five geographic clades (I—South Asian; II—East Asian; III—South African; IV—South American; V—Iranian) were investigated in this study. Antifungal susceptibility testing (AFST) with AmB was performed with Etest according to the manufacturer instructions. […] Ergosterol biosynthesis pathway genes ERG2 (C-8 sterol isomerase), ERG3 (C-5 sterol desaturase), ERG6 (sterol 24-C-methyltransferase), and ERG11 (lanosterol 14-α-demethylase) were amplified and sequenced. […] AmB susceptibility was then determined for the transformed strain.

Data set [4] is described as follows: Voriconazole exposure during ECMO, retrospective. In kind it is in vivo, human.
A short description of data set [5]: Universal voriconazole prophylaxis in lung transplant recipients, retrospective. In kind it is in vivo, human. The protocol:
Materials & Methods: Retrospective study of all adult lung transplant recipients at Copenhagen University Hospital during 2010 to 2019. […] Failure to complete prophylaxis was defined as recieving <9 of the intented 12 weeks of prophylaxis. Liver and kidney toxicity was graded according to Common Terminology Criteria for Adverse Events (CTCAE) criteria (grades 0–4 according to degree of elevation). Grade ≥2 adverse events were classified as high. Lung biopsies were evaluated for acute rejection (grade ≥A2). Calcineurin-inhibitor (CNI) plasma-concentrations were evaluated for off-target episodes. High and low episodes were defined as ≥2 concecutive samples 20% above or below target range limits, respectively. […] Acute rejections were classified as related to low CNI if they occurred 0–30 days from low CNI. Grade ≥2 kidney toxicity was considered related to high CNI if it occurred between two days prior to high CNI to 7 days after.

Data set [6] can be described thus: Voriconazole level monitoring with flucloxacillin co-administration. It counts as in vivo, human. From the text:
Methods: Synoptic description of a significant interaction in 2 critically ill patients and analysis of interaction screening in validated data bases.

For data set [7], the system named is Cryptococcus neoformans var grubii. The data set is described as follows: microbe, parasite or virus in culture. It counts as cell-based. Particulars: read-out: Minimal Inhibitory Concentration (MIC).

The structures appear in SMILES notation. Converted amounts (≈) assume the structure as drawn. Read-outs that look alike come from different tables or passages of the source.

Take `C[C@@H]1[C@H](O)[C@@H](C)/C=C/C=C/C=C/C=C/C=C/C=C/C=C/[C@H](O[C@@H]2O[C@H](C)[C@@H](O)[C@H](N)[C@@H]2O)C[C@@H]2O[C@](O)(C[C@@H](O)C[C@@H](O)[C@H](O)CC[C@@H](O)C[C@@H](O)CC(=O)O[C@H]1C)C[C@H](O)[C@H]2C(=O)O` [amphotericin B]: the PAFE in data set [1] was 3.5 to 6.5 h. In addition, the MIC in data set [2] (A. terreus 81 and 31, each) is 1 µg/mL (≈ 1.08 µM); in data set [2] (A. terreus 134) it was 4 µg/mL (≈ 4.33 µM); in data set [2] (A. terreus 164), 0.5 µg/mL (≈ 0.541 µM); in data set [3] (read-out: AmB MIC, South African isolate SA18, ERG6 missing base pairs 52–543), 6 µg/mL (≈ 6.49 µM); in data set [3] (read-out: AmB MIC, susceptible strain after replacement with ERG6 of SA18) it was over 32 µg/mL; in data set [3] (read-out: AmB MIC, susceptible strain with wild-type ERG6), 0.5 µg/mL (≈ 0.541 µM). Also, the “isolates with AmB MIC values ≥2 mg/L” value in data set [3] (19 of 313 isolates) turned out to be 6.1%.

As to `C[C@@H](c1ncncc1F)[C@](O)(Cn1cncn1)c1ccc(F)cc1F` [voriconazole], the “samples with subtherapeutic concentration (<2 mg/L)” value is listed as 56% in data set [4] (during ECMO) and 39% in data set [4] (without ECMO). In addition, the “median trough concentration [IQR]” value is 2.4 [1.2–4.7] mg/L in data set [4] (under ECMO) and 2.5 [1.4–3.9] mg/L in data set [4] (without ECMO). The “low CNI plasma-concentration episode related to discontinuation of voriconazole” value in data set [5] (patients of the universal prophylaxis period) turned out to be 45%. Moreover, the “failed to complete prophylaxis” value in data set [5] (receiving <9 of the intended 12 weeks, 183 patients on voriconazole prophylaxis) is on record as 62%. The “failure to complete prophylaxis due to hepatic toxicity” value in data set [5] (share of the 114 patients who failed to complete) is given as 72%. For the same molecule, the voriconazole level is reported as under 0.2 µg/mL in data set [6] (Case 1, 2 days after flucloxacillin interruption, 8 mg/kg bid); under 0.2 µg/mL in data set [6] (Case 1, day 10 of combination with high dose flucloxacillin, 4 mg/kg bid); 3 µg/mL in data set [6] (Case 1, subsequently after 3 days); 4.2 µg/mL in data set [6] (Case 2, after flucloxacillin stop and dose increase to 6 mg/kg bid); 3.5 µg/mL in data set [6] (Case 2, before flucloxacillin); under 0.5 µg/mL in data set [6] (Case 2, during high dose flucloxacillin, two levels). Also, the voriconazole level in data set [6] (Case 2, further increase, toxic level) came to 15.1 µg/mL; in data set [6] (Case 2, intravenous maintenance 4 mg/kg bid) it was 3.2 µg/mL.

Take `OC(Cn1cncn1)(Cn1cncn1)c1ccc(F)cc1F` [fluconazole]: the MIC in data set [7] is over 32 µg/mL.
